Source: patent US4188387A, “Amino-aryl 1,24-triazines useful in the treatment of diverse pain” (priority 1977, dated 1980)
“Also recorded” adds a separate entry of the source. Read-outs that look alike come from different tables or passages of the source.

Key:
[1] = in vivo; conditions: mouse
Method: The toxicity study was carried out on the conventional mouse, weighing about 20 g.
The substances were administered orally and intraperitoneally.
The LD50 was calculated in accordance with the method of L. C. MILLER and M. L. TAINTER, Proc. Soc. exper.

[2] = Analgesic activity according to […] et al. (phenyl benzoquinone injection); assay type: in vivo; conditions: oral, 30 minutes before the injection of phenyl benzoquinone
Method: The compounds are administered orally 30 minutes before the injection of phenyl benzoquinone.

[3] = Solubility; assay type: physicochemical; conditions: solvents named in the value
[4] = Ulcerogenic effect (criteria of PFEIFER and LEWALDOWFKI); assay type: in vivo; conditions: criteria of C. J. PFEIFER and L. G. LEWALDOWFKI
Text: J. PFEIFER and L. G. LEWALDOWFKI (Arch. Int. Pharmacodyn. 1971, 190, 5-13).

[5] = test system: dental pulp; assay: Electric stimulation of dental pulp in rabbits (J. CHEYMOL et al.); assay type: in vivo
[6] = ip, intraperitoneal, read-out: LD50 intraperitoneally

Structure (SMILES) | LD50 [1, 6] [mg/kg] | LD50 ([1]; oral, read-out: LD50 orally) [mg/kg] | ED50 [2] [mg/kg] | solubility [3] | ulcerogenic effect [4] | analgesic activity in electric stimulation of dental pulp [5]
CN(C)c1ccc(-c2nn(C)c(=O)nc2-c2ccccc2Cl)cc1 [ST 746, 2-methyl 3-oxo 5(orthochlorophenyl) 6(paradimethylaminophenyl) as. triazine] | 300 | 1000 | 100 | Insoluble in water, dilute bases and ether; also recorded: Soluble in methylene chloride, benzene, alcohol, chloroform and dilute acids |  | 
CN(C)c1ccc(-c2nc(=O)n(CCN3CCOCC3)nc2-c2ccc(N(C)C)cc2)cc1 [ST 767, 2 Ethyl morpholino 3-oxo 5,6 di(paradimethylaminophenyl) as. triazine] |  | > 1000 | 1 to 50 | Soluble in dilute aqueous acids, alcohol, methylene chloride, and chloroform; also recorded: Insoluble in water and dilute bases, benzene and ether |  | 
CN(C)c1ccc(-c2n[nH]c(=O)nc2-c2ccc(N(C)C)cc2)cc1 |  |  |  | Soluble in aqueous dilute bases and acids; also recorded: poorly soluble in alcohol, benzene, methylene chloride, chloroform; also recorded: Insoluble in ether |  | 
CN(C)CCCn1nc(-c2ccc(N(C)C)cc2)c(-c2ccc(N(C)C)cc2)nc1=O [ST 778] |  | > 1000 | 1 to 50 | Soluble in dilute aqueous acids, alcohol, benzene, methylene chloride, and chloroform; also recorded: Insoluble in water, dilute bases and ether |  | 
CN(C)c1ccc(-c2nc(=O)n(C)nc2-c2ccc(N(C)C)cc2)cc1 [ST 729, 2-methyl 3-oxo 5,6-di(paradimethylamino-phenyl) as triazine] |  |  | 1 | insoluble in water, dilute bases, benzene, and ether; also recorded: Soluble in dilute acids, alcohol and methylene chloride | without ulcerogenic effect | confirmed
C=CCn1nc(-c2ccc(N(C)C)cc2)c(-c2ccc(N(C)C)cc2)nc1=O [ST 776, 2-allyl 3-oxo 5,6-di(paradimethylaminophenyl) as triazine] |  | > 1000 | 1 to 50 | Soluble in dilute aqueous acids, alcohol, benzene, methylene chloride, and chloroform; also recorded: Insoluble in water, bases, and ether | without ulcerogenic effect | confirmed
CN(C)c1ccc(-c2nc(=S)n(C)nc2-c2ccc(N(C)C)cc2)cc1 [ST 811, 2-methyl 3-thione 5,6-di(paradimethylaminophenyl)as triazine] |  | > 1000 | 1 to 50 | Soluble in aqueous dilute acids, alcohols, and methylene chloride; also recorded: Insoluble in water, aqueous bases, and ether |  | 
O=C(OCC(O)CO)c1ccccc1Nc1ccnc2cc(Cl)ccc12 (stereo not drawn) [Glaphenine, reference compound] |  |  | 36 |  |  | 
CC(=O)Oc1ccccc1C(=O)O [Acetylsalicylic acid, reference compound] |  |  | 100 |  |  | 
CCN(CC)CCn1nc(-c2ccc(N(C)C)cc2)c(-c2ccc(N(C)C)cc2)nc1=O [ST 790, 2-diethylaminoethyl 3-oxo 5,6(paradimethylaminophenyl) as triazine] |  | > 1000 | 1 to 50 | Soluble in dilute aqueous acids, alcohol, benzene, methylene chloride, and chloroform; also recorded: Insoluble in bases, water, and ether |  | 
CN(C)c1ccc(-c2n[nH]c(=O)nc2-c2ccccc2Cl)cc1 [ST 745] |  |  |  | Insoluble in water, benzene, and ether; also recorded: Soluble in dilute bases and acids, ethanol, and methylene chloride |  | 
CCN(CC)c1ccc(-c2nc(=O)n(C)nc2-c2ccc(N(CC)CC)cc2)cc1 [ST 771, 2-methyl 3-oxo 5,6-di(paradiethylaminophenyl) as triazine] |  | > 1000 |  | Soluble in dilute aqueous acids, alcohol, methylene chloride, and chloroform; also recorded: Insoluble in water, dilute bases, benzene, ether |  | 
CN(C)c1ccc(-c2nn(C)c(=O)nc2-c2ccc(Cl)cc2)cc1 [ST 761, 2-methyl 3-oxo 5(parachlorophenyl) 6(p-dimethylaminophenyl) as triazine] | 400 | 1500 | 4 | Soluble in dilute acids, CH2 Cl2, and chloroform; also recorded: Insoluble in water, dilute bases, and ether |  | 
CCN(CC)c1ccc(-c2nnc(O)nc2-c2ccc(N(CC)CC)cc2)cc1 [ST 770, 3-oxo 5,6-di(paradiethylaminophenyl) as triazine] |  |  |  | Soluble in dilute acids and bases, alcohol, benzene, and methylene chloride |  | 
